Assay results taken from paper PMC12314052 (Nature Communications, 2025).
Changes are numbered by the printed parent chain.

What was measured:
[1] = system: hM5 mAChR; test: Inositol monophosphate (IP1) accumulation assay, ML380-ACh interaction; assay type: cell-based, human; details: ECV allosteric site alanine mutants of M5 mAChR, CHO cells
Procedure: (§1) FlpIn CHO cells stably expressing either WT or mutant hM5 mAChR were seeded in clear, flat bottom 96-well plates at a density of 10,000−25,000 cells per well (depending on the cell line) one day prior to the assay. The optimal cell density for each line was chosen based on achieving an IP1 response that fell within the linear range of the IP1 standard curve. On the assay day, the medium was replaced with stimulation buffer (Hanks’ balanced salt solution (HBSS) containing 10 mM HEPES, 1.3 mM CaCl2, and 30 mM LiCl, pH 7.4) and allowed to incubate for 60 minutes at 37 °C before ligand stimulation. After this pre-incubation, the buffer was replaced, and cells were exposed to ligands for 60 minutes at 37 °C in a 5% CO2 atmosphere, with a total assay volume of 100 μL. Following the 60-minute stimulation, ligands were removed by rapid removal of buffer. Cells were lysed by freeze-thawing in 30 μL of stimulation buffer. IP1 accumulation was then quantified using the HTRF IP-One assay kit (Cisbio), with fluorescence measured on an EnVision multilabel plate reader (PerkinElmer).
(§2) All data were analysed using GraphPad Prism 10 (GraphPad Software, San Diego, CA). The interaction between orthosteric agonist and allosteric modulator in functional assays was analysed using an operational model of allosterism to determine functional modulation (log αβ) and affinity (pKB) parameters. Radioligand saturation binding experiments with [^3H]-NMS to determine Bmax and pKD values were determined using a one site – specific binding equation in Prism 10^31. For the radioligand binding interaction of orthosteric agonist with various concentrations of allosteric modulator, the data were fit to an allosteric ternary complex model to derive pKB and α binding cooperativity parameters. All affinity, potency, cooperativity, and efficacy parameters were estimated as logarithms. To ensure model convergence in all instances, allosteric parameters were determined from the respective allosteric models, which were globally fitted to all individual datasets for each allosteric modulator at each receptor construct. […]

[2] = target: T1, hM5 mAChR (Homo sapiens, UniProt P08912); test: as above; assay type: cell-based; details: WT M5 mAChR, CHO cells
T1 construct: expressed in transfected cells
T1 sequence (P08912 1-532): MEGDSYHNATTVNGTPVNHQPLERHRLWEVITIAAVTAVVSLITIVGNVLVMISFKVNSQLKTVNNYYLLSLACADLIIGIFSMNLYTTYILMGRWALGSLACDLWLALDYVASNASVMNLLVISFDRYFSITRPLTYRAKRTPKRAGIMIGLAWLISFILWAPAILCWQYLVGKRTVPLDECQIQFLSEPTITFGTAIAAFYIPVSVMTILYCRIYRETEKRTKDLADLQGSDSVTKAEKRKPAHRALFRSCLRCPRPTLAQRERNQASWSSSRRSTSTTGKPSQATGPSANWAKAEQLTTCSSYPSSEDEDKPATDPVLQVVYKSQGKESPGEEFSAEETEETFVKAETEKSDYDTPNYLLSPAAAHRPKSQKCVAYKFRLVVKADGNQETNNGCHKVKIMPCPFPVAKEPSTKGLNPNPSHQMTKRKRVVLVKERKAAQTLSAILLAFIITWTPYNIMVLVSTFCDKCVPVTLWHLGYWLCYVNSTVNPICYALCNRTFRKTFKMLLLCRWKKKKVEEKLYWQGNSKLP
Procedure: as §1, §2

[3] = target: T2, hM5 mAChR (Homo sapiens, UniProt P08912, A113V/G152A/L156V); test: as above; assay type: cell-based; details: M5 EH4 pocket mutant (A113V, G152A, L156V), CHO cells
T2 construct: expressed in transfected cells
T2 sequence (P08912 1-532 A113V/G152A/L156V): T1 sequence (P08912 1-532) with A113V, G152A, L156V
Procedure: as §1, §2

[4] = system: hM5 mAChR; test: [3H]-NMS equilibrium radioligand binding, interaction of ACh and allosteric modulator; design: species or system human
Procedure: FlpIn CHO cells stably expressing WT hM5 mAChR or mutants were plated at 25,000 cells per well in 96-well isoplates (PerkinElmer Life Sciences) and incubated overnight at 37 °C in a 5% CO2 incubator. The following day, the cells were washed with PBS and incubated in 20 mM HEPES, 100 mM NaCl, 10 mM MgCl2, pH 7.4. For saturation binding experiments, the cells were incubated with varying concentrations of the orthosteric antagonist [^3H]-N-methylscopolamine ([^3H]-NMS; specific activity, 70 Ci/mmol, Perkin Elmer) in a final volume of 100 μL for 6 hours at room temperature. […] Radioactivity was measured by adding 100 μL of Optiphase Supermix scintillation fluid (PerkinElmer) and counted using a MicroBeta^2 Plate Counter (PerkinElmer Life Sciences).
All data were analysed using GraphPad Prism 10 (GraphPad Software, San Diego, CA). The interaction between orthosteric agonist and allosteric modulator in functional assays was analysed using an operational model of allosterism to determine functional modulation (log αβ) and affinity (pKB) parameters. Radioligand saturation binding experiments with [^3H]-NMS to determine Bmax and pKD values were determined using a one site – specific binding equation in Prism 10^31. […]

[5] = target: T3, ACh-bound M5 mAChR (Homo sapiens, UniProt P08912); test: Binding affinity for the ACh-bound receptor (chemical probe statement); details: determined in this study and others
T3 sequence (P08912 1-532): T1 sequence (P08912 1-532)

[6] = cited from earlier work
[7] = system: Gαq-coupled mAChRs (M1, M3, M5); details: M1, M3, M5 mAChRs ref 27; cited from earlier work

CCN(Cc1ccccc1C(F)(F)F)C(=O)C1CCN(S(=O)(=O)c2ccc3[nH]ncc3c2)CC1 [ML380, 1-((1H-indazol-5-yl)sulfoneyl)-N-ethyl-N-(2-(trifluoromethyl)benzyl)piperidine-4-carboxamide]
ML380 function at ECV alanine mutants [1]: retained its ability to bind, activate, and modulate receptor function
Activity of ML380 and cooperativity with ACh [2]: both agonism and positive cooperativity with ACh
Change in ML380 affinity (pKB) compared to WT [3]: no significant change in affinity
ML380 cooperativity with ACh versus WT ([4]; M5/M2 TM1,7,h8 chimera): increased
ML380's ability to modulate ACh binding ([4]; M5/M2 TM2,3,4 and M5/M2 TM3,4,5 chimeras (swapping TM2-5)): completely abolished
Kd [5]: ~575 nM
CNS penetration [6]: penetrate the CNS
Partition coefficients ([6]; limited in vivo utility ref 25): poor

O=C1C(=O)N(Cc2ccc(Br)cc2)c2ccccc21 [VU0119498]
Effect on ACh signalling [7]: enhanced
